Laboratory results: US20040131701A1, “Method to treat infectious diseases and/or to enhance antimicrobial efficacy of drugs” (Virocell Inc., priority 2000, published 2004)

Columns and labels:
[1] = system: T-tropic strain HIV-1NL4-3; experiment: Replication of HIV-1 in Sup-T1 cells (p24 in culture supernatants); assay type: cell-based; settings: 10 days, all three tested concentrations
Text: Fully infectious viral entities were generated by calcium phosphate transfection of 293T with pNL4-3 vector (T-tropic virions) as described below. Recombinant luciferase-encoding virus particles pseudotyped with the appropriate Env proteins have been used in our series of investigations. Such a system provides a highly sensitive and reproducible assay to monitor single-cycle viral infection events. This test is based on the molecular construct pNL4-3-Luc-E-R+, a vector that carries the gene for firefly luciferase inserted into the nef gene of the pNL4-3 provirus and contains also a frameshift at the 5′ end of env (nt 5950) that prevents expression of the envelope glycoproteins. […]
Sup-T1 cells were seeded at a density of 10^5 cells per well (100 μl) in 96-well flat-bottom, plates. […] Cells were incubated for 10 days and kinetics of viral infection was assessed by measuring in cell-free culture supernatants the major core viral p24 protein with the use of a commercial enzymatic assay (Organon Teknika). Putative toxicity of bpV molecules was assessed by adding the tetrazolium salt MTT to Sup-T1 cells that were cultured for 10 days under the constant pressure of the indicated concentrations of bpV[pic] and bpV[phen] molecules.

Sup-T1 cells = assay type: cell-based, human
Experimental: Sup-T1 cells were seeded at a density of 10^5 cells per well (100 μl) in 96-well flat-bottom, plates. Cells were either left untreated (control) or were pretreated for 5 min at 37° C. with the two different bpV molecules (bpV [pic] and bpV[phen]) at the indicated concentrations in a final volume of 200 μl. Next, both untreated and bpV-treated Sup-T1 cells were inoculated with the fully infectious T-tropic strain HIV-1NL4-3 (10 ng of p24). Culture medium was replaced twice a week and was supplemented with the appropriate final concentration of bpV molecules. Cells were incubated for 10 days and kinetics of viral infection was assessed by measuring in cell-free culture supernatants the major core viral p24 protein with the use of a commercial enzymatic assay (Organon Teknika). Putative toxicity of bpV molecules was assessed by adding the tetrazolium salt MTT to Sup-T1 cells that were cultured for 10 days under the constant pressure of the indicated concentrations of bpV[pic] and bpV[phen] molecules.

[2] = system: recombinant luciferase-encoding virions (NL4-3 backbone) pseudotyped with macrophage-tropic ADA envelope; experiment: Infection of primary human MDM with luciferase-encoding virions, ADA envelope; assay type: cell-based, HIV-1; settings: 48 h
Text: Fully infectious viral entities were generated by calcium phosphate transfection of 293T with pNL4-3 vector (T-tropic virions) as described below. Recombinant luciferase-encoding virus particles pseudotyped with the appropriate Env proteins have been used in our series of investigations. […] This test is based on the molecular construct pNL4-3-Luc-E-R+, a vector that carries the gene for firefly luciferase inserted into the nef gene of the pNL4-3 provirus and contains also a frameshift at the 5′ end of env (nt 5950) that prevents expression of the envelope glycoproteins. Progeny viruses were generated by cotransfecting 293T cells with pNL4-3-Luc-E-R+ and a plasmid DNA encoding for the appropriate envelope glycoproteins (T or macrophage-tropic). Briefly, a typical transfection experiment was performed as follow. In brief, 293T cells were plated 24 h before transfection at a concentration of 5×10^5 cells per 3 ml of DMEM into each well of 6-well plates. All solutions were brought to room temperature before use. Immediately before transfection, DNA was added to 25 μl of 2.5M CaCl2 and the volume was completed to 250 μl with distilled water. This solution was then added drop by drop to 250 μl of 2×HBS solution (280 mM NaCl, 50 mM HEPES, 1.5 mM Na2HPO4, pH 7.05) and the resulting mixture was stored at room temperature for 5 min. This DNA-HBS mixture was finally added drop by drop to plated 293T cells before incubation at 37° C. under a 5% CO2atmosphere. At 16 h after transfection, cells were washed twice with 3 ml of PBS and were incubated for an additional 24 h with 3 ml of DMEM supplemented with 10% FBS. Virion-containing supernatants were filtered through a 0.45-μm cellulose acetate membrane (Millipore, Mass.), aliquoted in 200 μl fractions, and were finally frozen at −85° C. until needed. Virus stocks were normalized for virion content using a commercial assay for the viral major core protein p24 (Organon Teknika, Durham, N.C.).
In brief, 100 μl of cell-free supernatant were discarded from each well and 25 μl of cell culture lysis buffer 5×(125 mM Tris phosphate [pH 7.8], 10 mM DTT, 5% Triton X-100, and 50% glycerol) were added to the wells before incubation at room temperature for 30 min. An aliquot of cell lysate (20 μl) was mixed with 100 μl luciferase assay buffer (20 mM tricine, 1.07 mM (MgCO3)4. Mg(OH)2.5H2O, 2.67 mM MgSO4, 0.1 mM EDTA, 270 μM coenzyme A, 470 μM luciferin, 530 μM ATP, and 33.3 mM DTT). Luciferase activity was monitored using a microplate luminometer (MLX; Dynex Technologies, Chantilly, Va.).

primary human MDM = experiment: MTT toxicity in primary human MDM; assay type: cell-based; settings: 48 h, 20 μM
Text: Target cells used in the present invention include human CD4-expressing T lymphoid Sup-T1, PM1, and Jurkat cells. Moreover, primary human monocyte-derived macrophages (MDM) and peripheral blood mononuclear cells (PBMC′) were also used in the current work, MDM were obtained using a standard technique. In brief, the mononuclear cell fraction was isolated by Ficoll-Hypaque centrifugation. Peripheral blood mononuclear cells were suspended in seeding medium (RPMI 1640+20% fetal calf serum+10% human serum type AB) in tissue culture 48-well plates (3×10^6 cells/ml and 500 μl per well). Five days after the initiation of the cultures, nonadherent cells were removed by rinsing the cultures three times with phosphate buffered saline. Next, such adherent cells were maintained in RPMI 1640 medium supplemented with 20% fetal calf serum.
Putative toxicity of bpV[pic] and bpV[phen] molecules was next assessed by adding the tetrazolium salt MTT to primary human MDM that were cultured for 48 h under the constant pressure of the indicated concentrations of bpV compounds.

**Q.** Which “HIV-1 production (p24)” value [1] does the source give for K2[VO(O2)2pic].H2O [bpV[pic]] here?
**A.** dramatic decrease of HIV-1 production

**Q.** And the “toxicity (MTT)” value (Sup-T1 cells)?
**A.** no toxic effect

**Q.** And the “HIV-1 infection (luciferase activity)” value ([2]; MDM, 10 μM alone, 15 min pretreatment)?
**A.** inhibits HIV-1 infection

**Q.** And the “anti-HIV-1 efficacy (luciferase activity)” value ([2]; MDM, 10 μM bpV[pic] or 5 μM bpV[phen], pretreatment 5 to 120 min)?
**A.** maintained over several pretreatment periods

**Q.** What about the “antiviral effect in combination with 3TC” value ([2]; MDM, 10 μM bpV[pic] with 0.035 μM 3TC, 15 min pretreatment) of the same substance?
**A.** additive antiviral effect

**Q.** What about the “anti-HIV-1 effect in combination with 3TC” value ([2]; MDM, 1, 5 and 10 μM bpV[pic] with 0.07 μM 3TC, 5 min pretreatment) of the same substance?
**A.** dose-dependent additive anti-HIV-1 effect

**Q.** And the “toxicity (MTT)” value (primary human MDM)?
**A.** toxic
